Test systems include 786-0; COLO 205; HCT-116; HL-60; HOP-62; HT-29; IGROV-1; MOLT-4; NCI-H522; OVCAR-3; SN12C; SR; UACC-257; DU-145; MCF7; MDA-MB-231; NCI/ADR-RES; SF-268; BT-549.
Common to all, as to test: growth of human tumour cells (NCI), 48 h

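Cells were grown in 96-well plates and exposed to each compound for 48 hours at five concentrations; endpoints were interpolated linearly between bracketing concentrations, or set to the highest concentration if not reached. Abbreviation: GI50, concentration required for 50% inhibition of growth.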 Activity calls are given as the source filed them. No stated cut-off is given here; in the data, active = GI50 up to about 1.1 µM and inactive = higher.

For the compound `O=C1CN(C(=O)c2ccccc2)Cc2[nH]c3ccccc3c21`, the GI50 in the assay with 786-0, in the assay on COLO 205, in the assay with HCT-116, in the assay with HL-60, in the assay on HOP-62 and in the assay with HT-29 was > 100 µM (inactive) throughout. Moreover, the GI50 in the assay on IGROV-1, in the assay with MOLT-4, in the assay on NCI-H522, in the assay on OVCAR-3, with SN12C and in the assay with SR was > 100 µM (inactive) throughout. For the same compound, the GI50 in the assay on UACC-257 is > 100 µM (inactive).

For the compound `CC(C)(C)OC(=O)[C@H]1CCC(=S)N1Cc1ccccc1`, the GI50 in the assay on 786-0, with COLO 205, in the assay on DU-145, in the assay with HCT-116, in the assay on HL-60 and in the assay with IGROV-1 was > 100 µM (inactive) in each case. The GI50 in the assay on MCF7, in the assay with MDA-MB-231, with MOLT-4, with NCI-H522, with NCI/ADR-RES and with OVCAR-3 was > 100 µM (inactive) each time. For the same compound, the GI50 with SN12C, with SR and in the assay with UACC-257 was > 100 µM (inactive) throughout.

Turning to `C#CC1(O)CCC2C3CCc4cc(Oc5nc(F)nc(-c6c7ccccc7c7sc8ccccc8n67)n5)ccc4C3CC[C@@]21C` (stereo not given in full), the GI50 with 786-0, with COLO 205, in the assay on HCT-116, in the assay on HL-60, with HOP-62 and in the assay with HT-29 was > 100 µM (inactive) throughout. For the same compound, the GI50 is > 100 µM (inactive) with IGROV-1; 42 µM (inactive) with MOLT-4; 14.4 µM (inactive) in the assay with NCI-H522; > 100 µM (inactive) with OVCAR-3; > 100 µM (inactive) in the assay with SF-268; 32.1 µM (inactive) with SR. Further, the GI50 in the assay with UACC-257 was > 100 µM (inactive).

Consider `COC(=O)[C@@H]1C[C@H](c2ccc(OC)c(OC)c2)OC1=O.COC(=O)[C@H]1C[C@H](c2ccc(OC)c(OC)c2)OC1=O`, for which the GI50 with 786-0, with COLO 205, with HCT-116, in the assay on HL-60, in the assay with HOP-62 and with HT-29 was > 100 µM (inactive) each time. For the same compound, the GI50 with IGROV-1, in the assay with MOLT-4, in the assay on NCI-H522, in the assay on OVCAR-3, in the assay on SF-268 and in the assay on SN12C was > 100 µM (inactive) each time. The GI50 in the assay on SR and in the assay with UACC-257 was > 100 µM (inactive) throughout.

For `C/C(CN1C(=O)c2ccccc2C1=O)=N\NS(=O)(=O)c1ccc(C)cc1`, the GI50 in the assay on 786-0, in the assay with COLO 205, in the assay with HCT-116, in the assay with HL-60, in the assay with HOP-62 and in the assay with HT-29 was > 100 µM (inactive) throughout. The GI50 in the assay with IGROV-1, with MOLT-4, in the assay on NCI-H522, in the assay with OVCAR-3, in the assay on SN12C and with SR was > 100 µM (inactive) each time. For the same compound, in the assay on UACC-257, the GI50 is > 100 µM (inactive).

As to `C/N=N/N(C)C(=O)NC`, the GI50 with 786-0, with COLO 205, in the assay with HCT-116, in the assay with HL-60, in the assay on HOP-62 and with HT-29 was > 100 µM (inactive) in each case. In addition, the GI50 in the assay on IGROV-1, with MOLT-4, with NCI-H522, in the assay on OVCAR-3, in the assay on SF-268 and with SN12C was > 100 µM (inactive) throughout. Besides, the GI50 in the assay with SR was > 100 µM (inactive).

For the compound `CCc1cccc(C)c1NC(=O)C(=O)Cc1nc2ccccc2s1`, the GI50 with 786-0 was > 100 µM (inactive); with COLO 205, > 100 µM (inactive); with HCT-116, > 100 µM (inactive); with HL-60 it was > 100 µM (inactive); in the assay on HT-29 it was > 100 µM (inactive); in the assay on IGROV-1, 0.444 µM (active). The GI50 in the assay with MOLT-4, in the assay on NCI-H522, with OVCAR-3, with SF-268, with SN12C and with SR was > 100 µM (inactive) throughout. In addition, the GI50 with UACC-257 was > 100 µM (inactive).

For the compound `N[C@H]1C2C3CC4C5CC(C42)C1(c1ccccc1)C53` (stereo not given in full), the GI50 in the assay on 786-0 is > 100 µM (inactive); in the assay with COLO 205 it was 81.3 µM (inactive); with HCT-116 it was > 100 µM (inactive); in the assay on HL-60, > 100 µM (inactive); with HOP-62 it was > 100 µM (inactive); in the assay with HT-29, 62.5 µM (inactive). Further, the GI50 with IGROV-1, with MOLT-4, in the assay on NCI-H522, with OVCAR-3, in the assay on SF-268 and in the assay on SN12C was > 100 µM (inactive) in each case. Also, the GI50 with SR is > 100 µM (inactive); with UACC-257 it was > 10 µM (inactive).

`C=Nc1ccc([N+](=O)[O-])cc1`: the GI50 in the assay with 786-0 was > 100 µM (inactive); in the assay on COLO 205, > 100 µM (inactive); in the assay on HCT-116, > 100 µM (inactive); with HL-60 it was > 62.7 µM (inactive); with HT-29, > 100 µM (inactive); in the assay with IGROV-1, > 100 µM (inactive). The GI50 in the assay on MOLT-4 was > 100 µM (inactive); in the assay on NCI-H522, > 100 µM (inactive); with OVCAR-3 it was > 100 µM (inactive); in the assay with SF-268, > 100 µM (inactive); with SN12C, > 65.3 µM (inactive); with SR it was > 41.5 µM (inactive). Also, in the assay with UACC-257, the GI50 is > 100 µM (inactive).

`C/C(N)=[N+](/C)[O-]`: the GI50 is > 100 µM (inactive) in the assay on 786-0; 17.2 µM (inactive) in the assay on COLO 205; > 100 µM (inactive) in the assay with HCT-116; > 100 µM (inactive) with HL-60; > 100 µM (inactive) in the assay on HOP-62; 83.6 µM (inactive) in the assay with HT-29. Moreover, the GI50 with IGROV-1 was > 100 µM (inactive); in the assay with MOLT-4, > 100 µM (inactive); with NCI-H522, 72.6 µM (inactive); in the assay with OVCAR-3, > 100 µM (inactive); in the assay with SF-268, 46.3 µM (inactive); in the assay on SN12C it was 92.9 µM (inactive). In addition, the GI50 with SR is 23.8 µM (inactive); in the assay on UACC-257 it was > 100 µM (inactive).

Turning to `COc1ccc(C(=O)N/N=C/c2c(C)n(C)n(-c3ccccc3)c2=O)cc1`, the GI50 in the assay with 786-0, in the assay on COLO 205, with HCT-116, with HL-60, in the assay on HOP-62 and with HT-29 was > 100 µM (inactive) in each case. The GI50 in the assay with IGROV-1, in the assay with MOLT-4, in the assay with NCI-H522, in the assay on OVCAR-3, in the assay on SF-268 and with SN12C was > 100 µM (inactive) each time. For the same compound, the GI50 in the assay with SR and with UACC-257 was > 100 µM (inactive) each time.

Turning to `CN(Cc1ccccc1)C(=O)c1ccccc1C(=O)O`, the GI50 in the assay with 786-0, in the assay on COLO 205, in the assay with HCT-116, with HL-60, in the assay with HT-29 and in the assay on IGROV-1 was > 100 µM (inactive) throughout. For the same compound, the GI50 in the assay with MOLT-4, in the assay with NCI-H522, in the assay on OVCAR-3, in the assay on SF-268, with SN12C and with SR was > 100 µM (inactive) in each case. For the same compound, the GI50 with UACC-257 was > 100 µM (inactive).

In the case of `Oc1c(NCn2nc(CCCCCCCCc3nn(CNc4ccc5ccccc5c4O)c(=S)o3)oc2=S)ccc2ccccc12`, the GI50 with 786-0 is 63.2 µM (inactive); with BT-549, > 100 µM (inactive); in the assay with COLO 205 it was > 100 µM (inactive); in the assay with DU-145 it was > 100 µM (inactive); in the assay with HCT-116, 11.9 µM (inactive); in the assay on HOP-62, 94.2 µM (inactive). The GI50 is 73.6 µM (inactive) in the assay with HT-29; 50.2 µM (inactive) in the assay with IGROV-1; 67.6 µM (inactive) in the assay with MCF7; 20 µM (inactive) in the assay on MDA-MB-231; > 100 µM (inactive) in the assay on MOLT-4; 49 µM (inactive) with NCI-H522. The GI50 in the assay with NCI/ADR-RES is 44.5 µM (inactive); with SF-268, > 100 µM (inactive); in the assay with SN12C, > 100 µM (inactive); with UACC-257, 75.5 µM (inactive).

With `O=C1/C=C(/c2ccc(O)cc2)[C@@H](O)Cc2ccc(O)cc2O1`, the GI50 in the assay with 786-0 was > 100 µM (inactive); in the assay on COLO 205 it was > 100 µM (inactive); in the assay with HCT-116 it was > 100 µM (inactive); in the assay with HOP-62 it was 61.4 µM (inactive); with HT-29 it was > 100 µM (inactive); in the assay on IGROV-1, > 100 µM (inactive). Further, the GI50 with NCI-H522 is 54.8 µM (inactive); with OVCAR-3, > 100 µM (inactive); in the assay on SF-268, 45.1 µM (inactive); in the assay with SN12C, 85.9 µM (inactive); with SR, 56.1 µM (inactive); with UACC-257 it was > 100 µM (inactive).
